The values that follow come from patent publication US20230257374A1, “NOVEL KRAS G12C PROTEIN INHIBITOR, PREPARATION METHOD THEREFOR, AND USE THEREOF” (INNOVENT BIOLOGICS (SUZHOU) CO., LTD., priority 2019, published 2023).

This assay addresses T1, KRAS G12C protein (Homo sapiens, UniProt P01116, G12C).
T1 construct: H358 cells (ATCC, CRL-5807) expressing KRAS G12C protein; host or cells: H358 (NCI-H358) cells
Nature of the assay: ERK protein phosphorylation assay (p-ERK) in H358 cells. To be noted: H358 cells expressing KRAS G12C protein, 3 h incubation with compound; read-out: IC50, inhibiting phosphorylation of KRAS G12C protein-mediated downstream signaling (p-ERK). On the set-up: scale not given here. Format: cell-based. On the procedure:
The cells were cultured in a 5% CO2 cell incubator for 16 h. The serially diluted compound was added to the cell medium with Echo550 at a final DMSO concentration of 0.5%, and the incubation was continued for 3 h. Then 8% paraformaldehyde (Solarbio, P1112) was added at 40 μL/well, followed by incubation at room temperature for 20 min. After one washing with PBS, cold 100% methanol was added at 40 μL/well for permeabilization for 10 min. […] Washing with PBST was performed 3 times, with 2 min of incubation for each washing. […] Washing with PBST was performed 3 times, with 2 min of incubation for each washing. Finally, the cell culture plate was inverted and centrifuged at 1000 rpm for 1 min, after which fluorescence signals were read using Odyssey CLx.

The structures appear in SMILES notation.

T1 sequence (P01116 1-188 isoform P01116-2 G12C): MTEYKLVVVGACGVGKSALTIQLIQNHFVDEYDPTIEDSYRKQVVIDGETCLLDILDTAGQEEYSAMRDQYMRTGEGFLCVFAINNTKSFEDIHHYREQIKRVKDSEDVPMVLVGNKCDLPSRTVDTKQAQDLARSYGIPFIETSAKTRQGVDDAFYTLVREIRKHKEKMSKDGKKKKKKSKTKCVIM

For orientation: IC50 means the concentration needed to halve the response being measured. Regarding `[2H]C([2H])([2H])C([2H])(N1CCC[C@H]1COc1nc2c(c(N3CCN(C(=O)C=C)[C@@H](CC#N)C3)n1)CCN(c1cccc3cccc(C)c13)C2)C([2H])([2H])[2H]` [Compound 37, 2-((S)-1-acryloyl-4-(7-(8-methylnaphthalen-1-yl)-2-(((S)-1-(isopropyl-d7)pyrrolidin-2-yl)methoxy)-5,6,7,8-tetrahydropyrido[3,4-d]pyrimidin-4-yl)piperazin-2-yl)acetonitrile], the IC50 is < 1000 nM.

As to `[2H]C([2H])([2H])N1CCC[C@H]1COc1nc2c(c(N3CCN(C(=O)/C=C/CNC4CC4)[C@@H](CC#N)C3)n1)CCN(c1cccc3cccc(C)c13)C2` [Compound 19, 2-((S)-1-((E)-4-(cyclopropylamino)-2-butenoyl)-4-(2-(((S)-1-(methyl-d3)pyrrolidin-2-yl)methoxy)-7-(8-methylnaphthalen-1-yl)-5,6,7,8-tetrahydropyrido[3,4-d]pyrimidin-4-yl)piperazin-2-yl)acetonitrile], the IC50 is < 1000 nM.

For the compound `[2H]C([2H])([2H])N1CCC[C@H]1COc1nc2c(c(N3CCN(C(=O)C=C)[C@@H](CC#N)C3)n1)CCN(c1cncc3cccc([13CH3])c13)C2` [Compound 31, 2-((S)-1-acryloyl-4-(2-(((S)-1-(methyl-d3)pyrrolidine-2-yl)methoxy)-7-(5-(methyl-^13C)isoquinolin-4-yl)-5,6,7,8-tetrahydropyrido[3,4-d]pyrimidin-4-yl)piperazin-2-yl)acetonitrile], the IC50 was < 1000 nM.

Take `[2H]C([2H])([2H])c1cccc2cccc(N3CCc4c(nc(OC[C@@H]5CCCN5C)nc4N4CCN(C(=O)/C=C/CNC5CC5)[C@@H](C)C4)C3)c12` [Compound 3, (E)-4-(cyclopropylamino)-1-((S)-2-methyl-4-(7-(8-(methyl-d3)naphthalen-1-yl)-2-(((S)-1-methylpyrrolidin-2-yl)methoxy)-5,6,7,8-tetrahydropyrido[3,4-d]pyrimidin-4-yl)piperazin-1-yl)-2-buten-1-one]: the IC50 is < 1000 nM.

With `[2H]C([2H])([2H])c1cccc2cccc(N3CCc4c(nc(OC[C@@H]5CCCN5C)nc4N4CCN(C(=O)C(=C)F)[C@@H](C)C4)C3)c12` [Compound 5, 2-fluoro-1-((S)-2-methyl-4-(7-(8-(methyl-d3)naphthalen-1-yl)-2-(((S)-1-methylpyrrolidin-2-yl)methoxy)-5,6,7,8-tetrahydropyrido[3,4-d]pyrimidin-4-yl)piperazin-1-yl)-2-propen-1-one], the IC50 is < 1000 nM.

Turning to `[2H]C([2H])([2H])CN1CCC[C@H]1COc1nc2c(c(N3CCN(C(=O)C=C)[C@@H](CC#N)C3)n1)CCN(c1cccc3cccc(Cl)c13)C2` [Compound 34, 2-((S)-1-acryloyl-4-(7-(8-chloronaphthalene-1-yl)-2-(((S)-1-(ethyl-2,2,2-d3)pyrrolidin-2-yl)methoxy)-5,6,7,8-tetrahydropyrido[3,4-d]pyrimidin-4-yl)piperazin-2-yl)acetonitrile], the IC50 was < 1000 nM.

Take `[2H]C([2H])([2H])N1CCC[C@H]1COc1nc2c(c(N3CCN(C(=O)C=C)[C@@H](CC#N)C3)n1)CCN(c1cccc3cccc([11CH3])c13)C2` [Compound 22, 2-((S)-1-acryloyl-4-(2-(((S)-1-(methyl-d3)pyrrolidin-2-yl)methoxy)-7-(8-(methyl-^11C)naphthalen-1-yl)-5,6,7,8-tetrahydropyrido[3,4-d]pyrimidin-4-yl)piperazin-2-yl)acetonitrile]: the half-maximal inhibitory concentration (IC50) is < 1000 nM.

Turning to `C=CC(=O)N1CCN(c2nc(OC[C@@H]3CCCN3C)nc3c2CCN(c2cccc4cccc([11CH3])c24)C3)C[C@@H]1CC#N` [Compound 6, 2-((S)-1-acryloyl-4-(7-(8-(methyl-^11C)naphthalen-1-yl)-2-(((S)-1-methylpyrrolidin-2-yl)methoxy)-5,6,7,8-tetrahydropyrido[3,4-d]pyrimidin-4-yl)piperazin-2-yl)acetonitrile], the IC50 is < 1000 nM.

For the compound `[2H]C([2H])([2H])CN1CCC[C@H]1COc1nc2c(c(N3CCN(C(=O)C=C)[C@@H](CC#N)C3)n1)CCN(c1cccc3cccc(C)c13)C2` [Compound 33, 2-((S)-1-acryloyl-4-(2-(((S)-1-(ethyl-2,2,2-d3)pyrrolidin-2-yl)methoxy)-7-(8-methylnaphthalen-1-yl)-5,6,7,8-tetrahydropyrido[3,4-d]pyrimidin-4-yl)piperazin-2-yl)acetonitrile], the IC50 is < 1000 nM.

For the compound `C=C(F)C(=O)N1CCN(c2nc(OC[C@@H]3CCCN3C)nc3c2CCN(c2cccc4cccc([11CH3])c24)C3)C[C@@H]1CC#N` [Compound 9, 2-((S)-1-(2-fluoroacryloyl)-4-(7-(8-(methyl-^11C)naphthalen-1-yl)-2-(((S)-1-methylpyrrolidin-2-yl)methoxy)-5,6,7,8-tetrahydropyrido[3,4-d]pyrimidin-4-yl)piperazin-2-yl)acetonitrile], the IC50 is < 1000 nM.

In the case of `[2H]C([2H])([2H])N1CCC[C@H]1COc1nc2c(c(N3CCN(C(=O)C=C)[C@@H](CC#N)C3)n1)CCN(c1cncc3cccc(Cl)c13)C2` [Compound 20, 2-((S)-1-acryloyl-4-(7-(5-chloroisoquinolin-4-yl)-2-(((S)-1-(methyl-d3)pyrrolidin-2-yl)methoxy)-5,6,7,8-tetrahydropyrido[3,4-d]pyrimidin-4-yl)piperazin-2-yl)acetonitrile], the concentration for half-maximal inhibition (IC50) is < 1000 nM.

Consider `[2H]C([2H])([2H])c1cccc2cncc(N3CCc4c(nc(OC[C@@H]5CCCN5C)nc4N4CCN(C(=O)C=C)[C@@H](CC#N)C4)C3)c12` [Compound 4, 2-((S)-1-acryloyl-4-(7-(5-(methyl-d3)isoquinolin-4-yl)-2-(((S)-1-methylpyrrolidin-2-yl)methoxy)-5,6,7,8-tetrahydropyrido[3,4-d]pyrimidin-4-yl)piperazin-2-yl)acetonitrile], for which the half-maximal inhibitory concentration (IC50) is < 1000 nM.

With `[2H]C([2H])([2H])C([2H])([2H])N1CCC[C@H]1COc1nc2c(c(N3CCN(C(=O)C=C)[C@@H](CC#N)C3)n1)CCN(c1cccc3cccc(Cl)c13)C2` [Compound 36, 2-((S)-1-acryloyl-4-(7-(8-chloronaphthalene-1-yl)-2-(((S)-1-(ethyl-d5)pyrrolidin-2-yl)methoxy)-5,6,7,8-tetrahydropyrido[3,4-d]pyrimidin-4-yl)piperazin-2-yl)acetonitrile], the IC50 was < 1000 nM.

Consider `C=C(F)C(=O)N1CCN(c2nc(OC[C@@H]3CCCN3C)nc3c2CCN(c2cncc4cccc([14CH3])c24)C3)C[C@@H]1CC#N` [Compound 14, 2-((S)-1-(2-fluoroacryloyl)-4-(7-(5-(methyl-^14C)isoquinolin-4-yl)-2-(((S)-1-methylpyrrolidin-2-yl)methoxy)-5,6,7,8-tetrahydropyrido[3,4-d]pyrimidin-4-yl)piperazin-2-yl)acetonitrile], for which the IC50 is < 1000 nM.

As for `C=CC(=O)N1CCN(c2nc(OC[C@@H]3CCCN3[13CH3])nc3c2CCN(c2cccc4cccc(C)c24)C3)C[C@@H]1CC#N` [Compound 26, 2-((S)-1-acryloyl-4-(2-(((S)-1-(methyl-^13C)pyrrolidin-2-yl)methoxy)-7-(8-methylnaphthalen-1-yl)-5,6,7,8-tetrahydropyrido[3,4-d]pyrimidin-4-yl)piperazin-2-yl)acetonitrile], the IC50 was < 1000 nM.

Regarding `[2H]C([2H])([2H])C([2H])(N1CCC[C@H]1COc1nc2c(c(N3CCN(C(=O)C=C)[C@@H](CC#N)C3)n1)CCN(c1cccc3cccc(Cl)c13)C2)C([2H])([2H])[2H]` [Compound 38, 2-((S)-1-acryloyl-4-(7-(8-chloronaphthalene-1-yl)-2-(((S)-1-(isopropyl-d7)pyrrolidin-2-yl)methoxy)-5,6,7,8-tetrahydropyrido[3,4-d]pyrimidin-4-yl)piperazin-2-yl)acetonitrile], the concentration for half-maximal inhibition (IC50) is < 1000 nM.

For the compound `[2H]C([2H])([2H])N1CCC[C@H]1COc1nc2c(c(N3CCN(C(=O)C=C)[C@@H](CC#N)C3)n1)CCN(c1cncc3cccc([14CH3])c13)C2` [Compound 32, 2-((S)-1-acryloyl-4-(2-(((S)-1-(methyl-d3)pyrrolidine-2-yl)methoxy)-7-(5-(methyl-^14C)isoquinolin-4-yl)-5,6,7,8-tetrahydropyrido[3,4-d]pyrimidin-4-yl)piperazin-2-yl)acetonitrile], the concentration for half-maximal inhibition (IC50) is < 1000 nM.

`C=CC(=O)N1CCN(c2nc(OC[C@@H]3CCCN3[11CH3])nc3c2CCN(c2cccc4cccc(C)c24)C3)C[C@@H]1CC#N` [Compound 25, 2-((S)-1-acryloyl-4-(2-(((S)-1-(methyl-^11C)pyrrolidin-2-yl)methoxy)-7-(8-methylnaphthalen-1-yl)-5,6,7,8-tetrahydropyrido[3,4-d]pyrimidin-4-yl)piperazin-2-yl)acetonitrile]: the 50% inhibitory concentration (IC50) is < 1000 nM.

Turning to `C=CC(=O)N1CCN(c2nc(OC[C@@H]3CCCN3[14CH3])nc3c2CCN(c2cccc4cccc(C)c24)C3)C[C@@H]1CC#N` [Compound 39, 2-((S)-1-acryloyl-4-(2-(((S)-1-(methyl-^14C)pyrrolidin-2-yl)methoxy)-7-(8-methylnaphthalen-1-yl)-5,6,7,8-tetrahydropyrido[3,4-d]pyrimidin-4-yl)piperazin-2-yl)acetonitrile], the concentration for half-maximal inhibition (IC50) is < 1000 nM.

For `[2H]C([2H])([2H])c1cccc2cccc(N3CCc4c(nc(OC[C@@H]5CCCN5C([2H])([2H])[2H])nc4N4CCN(C(=O)C(=C)F)C[C@@H]4C)C3)c12` [Compound 23, 2-fluoro-1-((S)-3-methyl-4-(7-(8-(methyl-d3)naphthalen-1-yl)-2-(((S)-1-(methyl-d3)pyrrolidin-2-yl)methoxy)-5,6,7,8-tetrahydropyrido[3,4-d]pyrimidin-4-yl)piperazin-1-yl)-2-propen-1-one], the half-maximal inhibitory concentration (IC50) was < 1000 nM.
